Measurements: patent US10125118B2, “Heteroaryl compounds and their use as therapeutic drugs” (Dong-A Socio Holdings Co., Ltd., priority 2015, dated 2018)

Assays:
[1] = system: CD8-MerTK in Ba/F3-CDM cells; experiment: In cell MER kinase assay, Ba/F3-CDM cell proliferation without IL-3 (Celltiter-Glo); assay type: cell-based, murine; settings: 48 hours compound treatment, read-out: Cell growth inhibition (GI50)
Summary of the method: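 Ba/F3 cells, IL-3-dependent, transfected with CD8-MerTK and grown without IL-3 in DMEM/10% FBS. IL-3-supplemented Ba/F3 cells run in parallel as a cytotoxicity control.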

[2] = biological target: human c-MER catalytic domain (Homo sapiens (Human), UniProt Q12866); experiment: LanthaScreen TR-FRET kinase assay, c-MER; settings: read-out: Mer TK inhibition (IC50); Biochemical IC50, TR-FRET, 10 uM ATP
human c-MER catalytic domain, sequence (Q12866 587-858): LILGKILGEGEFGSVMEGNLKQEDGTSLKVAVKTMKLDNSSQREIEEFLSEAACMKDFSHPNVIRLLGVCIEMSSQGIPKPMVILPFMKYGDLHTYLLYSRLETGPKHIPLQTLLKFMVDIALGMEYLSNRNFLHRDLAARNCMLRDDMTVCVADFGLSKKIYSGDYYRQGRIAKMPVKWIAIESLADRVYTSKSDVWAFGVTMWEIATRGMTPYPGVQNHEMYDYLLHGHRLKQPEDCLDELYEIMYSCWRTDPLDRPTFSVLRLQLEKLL

Compound | GI50 [1] [nM] | IC50 [2] [nM]
C[C@@H](c1ccc(-c2ccc(CO[C@H]3CCC[C@@H]3NC(=O)c3cc(-c4cnn(C)c4)cnc3N)cc2)cc1)N1CCN(C)CC1 [Example 215, 2-amino-5-(1-methyl-1H-pyrazol-4-yl)-N-((1S,2S)-2-((4′-((S)-1-(4-methylpiperazin-1-yl)ethyl)-[1,1′-biphenyl]-4-yl)methoxy)cyclopentyl)nicotinamide] | < 100 | < 10
CN1CCN(Cc2ccc(-c3ccc(CO[C@H]4CCC[C@@H]4NC(=O)c4cc(-c5ccc(CO)cc5)cnc4N)cc3)cc2)CC1 [Example 369, 2-amino-5-(4-(hydroxymethyl)phenyl)-N-((1S,2S)-2-((4′-((4-methylpiperazin-1-yl)methyl)-[1,1′-biphenyl]-4-yl)methoxy)cyclopentyl)nicotinamide] | < 100 | < 10
C[C@@H](c1ccc(-c2ccc(CO[C@H]3CCC[C@@H]3NC(=O)c3cc(-c4ccc(F)nc4)cnc3N)cc2)cc1)N1CCN(C)CC1 [Example 222, 6-amino-6′-fluoro-N-((1S,2S)-2-((4′-((S)-1-(4-methylpiperazin-1-yl)ethyl)-[1,1′-biphenyl]-4-yl)methoxy)cyclopentyl)-[3,3′-bipyridine]-5-carboxamide] | < 100 | < 10
CN1C[C@H](NC(=O)c2cc(-c3cnn(C)c3)cnc2N)[C@@H](OCc2ccc(-c3ccc(CN4CCN(CCO)CC4)c(C(F)(F)F)c3)cc2)C1 [Example 445, 2-amino-N-((3S,4S)-4-((4′-((4-(2-hydroxyethyl)piperazin-1-yl)-methyl)-3′-(trifluoromethyl)-[1,1′-biphenyl]-4-yl)methoxy)-1-methylpyrrolidin-3-yl)-5-(1-methyl-1H-pyrazol-4-yl)nicotinamide] | < 100 | < 10
CN1CCN(Cc2ccc(-c3ccc(CO[C@H]4CCC[C@@H]4NC(=O)c4cc(-c5ccc(N6CCN(C)CC6)cc5)cnc4N)cc3)cc2)CC1 [Example 367, 2-amino-N-((1S,2S)-2-((4′-((4-methylpiperazin-1-yl)methyl)-[1,1′-biphenyl]-4-yl)methoxy)cyclopentyl)-5-(4-(4-methylpiperazin-1-yl)phenyl)-nicotinamide] | < 100 | < 10
CCC1CN(Cc2ccc(-c3ccc(CO[C@H]4CCC[C@@H]4NC(=O)c4cc(-c5cnn(C)c5)cnc4N)cc3)cc2)CCN1C (stereo partly drawn) [Example 188, 2-amino-N-((1S,2S)-2-((4′-((3-ethyl-4-methylpiperazin-1-yl)-methyl)-[1,1′-biphenyl]-4-yl)methoxy)cyclopentyl)-5-(1-methyl-1H-pyrazol-4-yl)-nicotinamide] | < 100 | < 10
CN(C)CCCOc1ccc(-c2ccc(CO[C@H]3CCC[C@@H]3NC(=O)c3cc(-c4cnn(C)c4)cnc3N)cc2)cc1 [Example 246, 2-amino-N-((1S,2S)-2-((4′-(3-(dimethylamino)propoxy)-[1,1′-biphenyl]-4-yl)methoxy)cyclopentyl)-5-(1-methyl-M-pyrazol-4-yl)nicotinamide] | 100 to 500 | < 10
C[C@@H]1CN(Cc2ccc(-c3ccc(CO[C@H]4CCC[C@@H]4NC(=O)c4cc(-c5cnn(C)c5)cnc4N)cc3)cc2)CCN1C [Example 186, 2-amino-N-((1S,2S)-2-((4′-(((R)-3,4-dimethylpiperazin-1-yl)-methyl)-[1,1′-biphenyl]-4-yl)methoxy)cyclopentyl)-5-(1-methyl-1H-pyrazol-4-yl)-nicotinamide] | < 100 | < 10
CC(c1ccc(-c2ccc(CO[C@H]3CNC[C@@H]3NC(=O)c3cc(-c4cnn(C)c4)cnc3N)cc2)cc1)N1CCN(C)CC1 (stereo partly drawn) [Example 438, 2-amino-5-(1-methyl-1H-pyrazol-4-yl)-N-((3S,4S)-4-((4′-(1-(4-methylpiperazin-1-yl)ethyl)-[1,1′-biphenyl]-4-yl)methoxy)pyrrolidin-3-yl)-nicotinamide] | 500 to 1000 | < 10
COc1ccc(-c2cnc(N)c(C(=O)N[C@H]3CCC[C@@H]3OCc3ccc(-c4ccc(CN5CCN(C)CC5)cc4)cc3)c2)cc1OC [Example 383, 2-amino-5-(3,4-dimethoxyphenyl)-N-((1S,2S)-2-((4′-((4-methylpiperazin-1-yl)methyl)-[1,1′-biphenyl]-4-yl)methoxy)cyclopentyl)nicotinamide] | < 100 | < 10
CCc1cc(CO[C@H]2CN(C)C[C@@H]2NC(=O)c2cc(-c3cnn(C4CCN(C)CC4)c3)cnc2N)ccc1C [Example 433, 2-amino-N-((3S,4S)-4-((3-ethyl-4-methylbenzyl)oxy)-1-methylpyrrolidin-3-yl)-5-(1-(1-methylpiperidin-4-yl)-1H-pyrazol-4-yl)nicotinamide] | 100 to 500 | < 10
CN1CCN(Cc2ccc(-c3ccc(CO[C@H]4CCC[C@@H]4NC(=O)c4cc(-c5ccc(F)c(F)c5)cnc4N)cc3)cc2)CC1 [Example 364] | < 100 | < 10
Cn1cc(-c2cnc(N)c(C(=O)N[C@H]3CCC[C@@H]3OCc3ccc(C#CCCO)cc3)c2)cn1 [Example 249, 2-amino-N-((1S,2S)-2-((4-(4-hydroxybut-1-yn-1-yl)benzyl)oxy)-cyclopentyl)-5-(1-methyl-1H-pyrazol-4-yl)nicotinamide] | > 1000 | < 10
Cn1cc(-c2cnc(N)c(C(=O)N[C@H]3CCC[C@@H]3OCc3ccc(C#CCCCCO)cc3)c2)cn1 [Example 251, 2-amino-N-((1S,2S)-2-((4-(6-hydroxyhex-1-yn-1-yl)benzyl)oxy)-cyclopentyl)-5-(1-methyl-1H-pyrazol-4-yl)nicotinamide] | > 1000 | < 10
CN1CCN(Cc2ccc(-c3ccc(CO[C@H]4CCC[C@@H]4NC(=O)c4cc(-c5cnn(C)c5)cnc4N)cc3)cc2[N+](=O)[O-])CC1 [Example 200, 2-amino-5-(1-methyl-1H-pyrazol-4-yl)-N-((1S,2S)-2-((4′-((4-methylpiperazin-1-yl)methyl)-3′-nitro-[1,1′-biphenyl]-4-yl)methoxy)-cyclopentyl)nicotinamide] | 100 to 500 | < 10
CN1CCC(Oc2ccc(-c3ccc(CO[C@H]4CCC[C@@H]4NC(=O)c4cc(-c5cnn(C)c5)cnc4N)cc3)cc2)CC1 [Example 247, 2-amino-5-(1-methyl-1H-pyrazol-4-yl)-N-((1S,2S)-2-((4′-((1-methylpiperidin-4-yl)oxy)-[1,1′-biphenyl]-4-yl)methoxy)cyclopentyl)nicotinamide] | 100 to 500 | < 10
CC(c1ccc(-c2ccc(CO[C@H]3CN(C)C[C@@H]3NC(=O)c3cc(-c4cnn(C)c4)cnc3N)cc2)cc1)N1CCN(CCO)CC1 (stereo partly drawn) [Example 443, 2-amino-N-((3S,4S)-4-((4′-(1-(4-(2-hydroxyethyl)piperazin-1-yl)ethyl)-[1,1′-biphenyl]-4-yl)methoxy)-1-methylpyrrolidin-3-yl)-5-(1-methyl-1H-pyrazol-4-yl)nicotinamide] | < 100 | < 10
C[C@H](c1ccc(-c2ccc(CO[C@H]3CCC[C@@H]3NC(=O)c3cc(-c4ccc(F)nc4)cnc3N)cc2)cc1)N1CCN(CCO)CC1 [Example 227, 6-amino-6′-fluoro-N-((1S,2S)-2-((4′-((R)-1-(4-(2-hydroxyethyl)-piperazin-1-yl)ethyl)-[1,1′-biphenyl]-4-yl)methoxy)cyclopentyl)-[3,3′-bipyridine]-5-carboxamide] | < 100 | < 10
CN1C[C@H](NC(=O)c2cc(-c3cnn(C)c3)cnc2N)[C@@H](OCc2ccc(-c3ccc(CN4CCN(CCO)CC4)cc3)cc2)C1 [Example 447, 2-amino-N-((3S,4S)-4-((4′-((4-(2-hydroxyethyl)piperazin-1-yl)-methyl)-[1,1′-biphenyl]-4-yl)methoxy)-1-methylpyrrolidin-3-yl)-5-(1-methyl-1H-pyrazol-4-yl)nicotinamide] | < 100 | < 10
Cn1cc(-c2cnc(N)c(C(=O)N[C@H]3CNC[C@@H]3OCc3ccc(-c4ccc(CN5CCN(CCO)CC5)cc4)cc3)c2)cn1 [Example 446, 2-amino-N-((3S,4S)-4-((4′-((4-(2-hydroxyethyl)piperazin-1-yl)-methyl)-[1,1′-biphenyl]-4-yl)methoxy)pyrrolidin-3-yl)-5-(1-methyl-1H-pyrazol-4-yl)-nicotinamide] | > 1000 | < 10
C[C@@H](c1ccc(-c2ccc(CO[C@H]3CCC[C@@H]3NC(=O)c3cc(-c4ccc(F)nc4)cnc3N)cc2)cc1)N1CCN(CCO)CC1 [Example 226, 6-amino-6′-fluoro-N-((1S,2S)-2-((4′-((S)-1-(4-(2-hydroxyethyl)piperazin-1-yl)ethyl)-[1,1′-biphenyl]-4-yl)methoxy)cyclopentyl)-[3,3′-bipyridine]-5-carboxamide] | < 100 | < 10
CN1CCN(Cc2ccc(-c3ccc(CO[C@H]4CCC[C@@H]4NC(=O)c4cc(-c5ccc(F)cc5)cnc4N)cc3)cc2)CC1 [Example 363, 2-amino-5-(4-fluorophenyl)-N-((1S,2S)-2-((4′-((4-methylpiperazin-1-yl)methyl)-[1,1′-biphenyl]-4-yl)methoxy)cyclopentyl)nicotinamide] | 100 to 500 | < 10
CN(C)c1ccc(-c2ccc(CO[C@H]3CCC[C@@H]3NC(=O)c3cc(-c4cnn(C)c4)cnc3N)cc2)cc1 [Example 137, 2-amino-N-((1S,2S)-2-((4′-(dimethylamino)-[1,1′-biphenyl]-4-yl)methoxy)cyclopentyl)-5-(1-methyl-1H-pyrazol-4-yl)nicotinamide] | < 100 | < 10
CC(c1ccc(-c2ccc(CO[C@H]3CCC[C@@H]3NC(=O)c3cc(-c4cnn(C)c4)cnc3N)cc2)cc1)N1C[C@@H](C)N(C)[C@@H](C)C1 (stereo partly drawn) [Example 209, 2-amino-5-(1-methyl-1H-pyrazol-4-yl)-N-((1S,2S)-2-((4′-(1-((3S,5R)-3,4,5-trimethylpiperazin-1-yl)ethyl)-[1,1′-biphenyl]-4-yl)methoxy)-cyclopentyl)nicotinamide] | < 100 | < 10
